Ends that are not written are not given here.
Tested on: washed platelets
Test: ADP-induced platelet aggregation (light transmission)
Assay type: cell-based
Conditions: 10 μM ADP, 1.67 mg/ml fibrinogen, washed human platelets
Method: Measurement of platelet aggregation—Platelet aggregation was measured by the increase in light transmission as described previously (Lu et al. (1993), supra; Lu et al. (1994) Biochem. J. 304, 929-936). Briefly, platelet rich plasma (PRP) was prepared from citrated human blood, obtained from healthy individuals, by centrifugation at 200×g for 15 min. Washed platelets were prepared from PRP and resuspended in adhesion/aggregation buffer (145 mM NaCl, 5 mM KCl, 1 mM MgCl2, 2 mM CaCl2, 10 mM glucose, 3.5 mg/ml BSA and 10 mM HEPES, pH 7.35) and adjusted to a count of 3×10^8/ml. Platelet aggregation (320 μl incubations) was induced with 10 μM ADP in the presence of 1.67 mg/ml fibrinogen and measured using a Payton Dual-Aggregometer linked to a chart recorder.

## KGD-dendroaspin: dendroaspin scaffold in which the native RGD motif is replaced by KGD; recombinant, expressed in E. coli (RICYNHLGTKPPTTETCQEDSCYKNIWTFDNIIRRGCGCFTPKGDMPGPYCCESDKCNL; ends and bridges not checked; cysteine pairing not given here)
  inhibition of ADP-induced platelet aggregation: potent inhibition

From US20020120102A1, “Use of dendroaspin as a scaffold for non-dendroaspin domains” (priority 2000, published 2002)
